From ChEMBL document CHEMBL5653615 (J Biol Chem, 2013)

How the values were obtained:
[1] = target: T1, Discoidin domain-containing receptor 2 (Homo sapiens) (UniProt Q16832); assay: Inhibition of human DDR2 at 18.6 nM by HotSpot assay relative to control
T1 sequence (whole entry): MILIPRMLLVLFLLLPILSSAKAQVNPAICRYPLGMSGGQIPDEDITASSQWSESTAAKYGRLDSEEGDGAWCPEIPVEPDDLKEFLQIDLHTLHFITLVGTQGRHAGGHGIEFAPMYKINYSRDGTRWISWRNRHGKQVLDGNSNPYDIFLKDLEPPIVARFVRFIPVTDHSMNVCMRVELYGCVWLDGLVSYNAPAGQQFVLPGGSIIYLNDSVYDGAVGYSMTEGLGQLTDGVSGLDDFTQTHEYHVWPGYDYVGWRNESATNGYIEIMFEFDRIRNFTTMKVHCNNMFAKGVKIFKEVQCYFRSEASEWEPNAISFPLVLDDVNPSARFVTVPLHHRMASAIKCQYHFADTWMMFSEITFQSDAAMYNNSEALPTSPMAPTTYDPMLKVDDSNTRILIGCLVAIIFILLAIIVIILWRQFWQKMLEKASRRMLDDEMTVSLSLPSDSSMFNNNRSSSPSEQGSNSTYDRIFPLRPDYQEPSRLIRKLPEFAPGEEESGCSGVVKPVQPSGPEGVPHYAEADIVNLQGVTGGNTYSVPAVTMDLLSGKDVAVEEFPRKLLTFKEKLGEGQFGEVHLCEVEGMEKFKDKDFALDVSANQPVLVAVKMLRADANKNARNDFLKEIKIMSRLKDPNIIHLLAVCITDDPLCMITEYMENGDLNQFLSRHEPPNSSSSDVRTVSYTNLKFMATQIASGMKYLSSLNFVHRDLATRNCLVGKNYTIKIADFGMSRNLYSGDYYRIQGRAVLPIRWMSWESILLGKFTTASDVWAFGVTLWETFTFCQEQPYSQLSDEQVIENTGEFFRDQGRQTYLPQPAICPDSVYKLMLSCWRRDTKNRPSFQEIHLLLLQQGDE

[2] = target: Serine/threonine-protein kinase Nek4 (Homo sapiens) (UniProt P51957); assay: Inhibition of human NEK4 at 18.6 nM by HotSpot assay relative to control
[3] = target: Tyrosine-protein kinase Srms (Homo sapiens) (UniProt Q9H3Y6); assay: Inhibition of human SRMS at 18.6 nM by HotSpot assay relative to control
[4] = target: SRSF protein kinase 1 (Homo sapiens) (UniProt Q96SB4); assay: Inhibition of human SRPK1 at 18.6 nM by HotSpot assay relative to control
[5] = target: Serine/threonine-protein kinase OSR1 (Homo sapiens) (UniProt O95747); assay: Inhibition of human OXSR1 at 18.6 nM by HotSpot assay relative to control
[6] = target: T2, Serine/threonine-protein kinase Nek1 (Homo sapiens) (UniProt Q96PY6); assay: Inhibition of human NEK1 at 500 nM by HotSpot assay relative to control
T2 sequence (whole entry): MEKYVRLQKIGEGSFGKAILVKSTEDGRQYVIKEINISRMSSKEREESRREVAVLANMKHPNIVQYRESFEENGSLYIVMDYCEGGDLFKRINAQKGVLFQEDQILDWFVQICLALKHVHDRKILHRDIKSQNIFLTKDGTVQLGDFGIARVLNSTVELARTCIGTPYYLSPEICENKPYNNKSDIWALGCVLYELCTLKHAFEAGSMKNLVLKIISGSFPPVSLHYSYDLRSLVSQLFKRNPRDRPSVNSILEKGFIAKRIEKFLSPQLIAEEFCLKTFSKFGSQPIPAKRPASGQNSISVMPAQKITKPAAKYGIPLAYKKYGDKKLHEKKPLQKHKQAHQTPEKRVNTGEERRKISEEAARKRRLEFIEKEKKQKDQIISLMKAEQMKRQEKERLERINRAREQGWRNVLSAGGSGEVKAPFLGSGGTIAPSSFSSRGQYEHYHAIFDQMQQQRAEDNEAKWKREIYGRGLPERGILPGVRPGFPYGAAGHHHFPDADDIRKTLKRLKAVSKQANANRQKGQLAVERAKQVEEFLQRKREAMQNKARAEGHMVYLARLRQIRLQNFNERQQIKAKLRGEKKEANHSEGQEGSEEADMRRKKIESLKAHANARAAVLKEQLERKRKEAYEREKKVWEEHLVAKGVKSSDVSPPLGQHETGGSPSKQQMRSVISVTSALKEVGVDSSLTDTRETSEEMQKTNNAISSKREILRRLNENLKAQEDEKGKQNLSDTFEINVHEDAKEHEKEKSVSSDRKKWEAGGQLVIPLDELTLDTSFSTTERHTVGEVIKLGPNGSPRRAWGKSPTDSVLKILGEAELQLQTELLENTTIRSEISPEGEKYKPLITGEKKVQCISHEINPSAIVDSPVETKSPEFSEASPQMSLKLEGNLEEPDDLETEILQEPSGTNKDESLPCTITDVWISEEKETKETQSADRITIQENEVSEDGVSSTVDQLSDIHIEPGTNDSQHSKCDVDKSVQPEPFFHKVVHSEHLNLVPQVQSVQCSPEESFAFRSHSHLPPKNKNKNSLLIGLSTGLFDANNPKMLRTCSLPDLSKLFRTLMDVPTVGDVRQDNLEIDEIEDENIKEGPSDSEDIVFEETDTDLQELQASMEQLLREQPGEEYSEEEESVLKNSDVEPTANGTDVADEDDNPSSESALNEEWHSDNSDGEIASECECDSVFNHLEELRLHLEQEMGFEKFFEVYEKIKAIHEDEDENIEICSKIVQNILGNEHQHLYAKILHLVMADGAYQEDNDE

[7] = target: T3, Megakaryocyte-associated tyrosine-protein kinase (Homo sapiens) (UniProt P42679); assay: Inhibition of human CTK at 1.82 nM by HotSpot assay relative to control
T3 sequence (whole entry): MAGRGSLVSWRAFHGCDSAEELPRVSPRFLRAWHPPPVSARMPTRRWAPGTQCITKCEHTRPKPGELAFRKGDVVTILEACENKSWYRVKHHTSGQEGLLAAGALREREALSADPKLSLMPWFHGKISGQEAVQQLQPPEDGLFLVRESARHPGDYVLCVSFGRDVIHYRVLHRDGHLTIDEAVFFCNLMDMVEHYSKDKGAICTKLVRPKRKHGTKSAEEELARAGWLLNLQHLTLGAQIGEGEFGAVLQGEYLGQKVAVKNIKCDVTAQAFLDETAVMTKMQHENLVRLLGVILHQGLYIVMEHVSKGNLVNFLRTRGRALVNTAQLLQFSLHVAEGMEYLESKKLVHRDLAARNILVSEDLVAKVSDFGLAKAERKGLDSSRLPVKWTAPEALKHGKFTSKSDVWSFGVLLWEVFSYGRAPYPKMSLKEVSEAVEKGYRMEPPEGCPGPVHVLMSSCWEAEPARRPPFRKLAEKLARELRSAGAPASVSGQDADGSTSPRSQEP

[8] = target: Tyrosine-protein kinase HCK (Homo sapiens) (UniProt P08631); assay: Inhibition of human HCK at 1.82 nM by HotSpot assay relative to control
Sequence of Tyrosine-protein kinase HCK (Homo sapiens) (P08631 2-526 limits assumed): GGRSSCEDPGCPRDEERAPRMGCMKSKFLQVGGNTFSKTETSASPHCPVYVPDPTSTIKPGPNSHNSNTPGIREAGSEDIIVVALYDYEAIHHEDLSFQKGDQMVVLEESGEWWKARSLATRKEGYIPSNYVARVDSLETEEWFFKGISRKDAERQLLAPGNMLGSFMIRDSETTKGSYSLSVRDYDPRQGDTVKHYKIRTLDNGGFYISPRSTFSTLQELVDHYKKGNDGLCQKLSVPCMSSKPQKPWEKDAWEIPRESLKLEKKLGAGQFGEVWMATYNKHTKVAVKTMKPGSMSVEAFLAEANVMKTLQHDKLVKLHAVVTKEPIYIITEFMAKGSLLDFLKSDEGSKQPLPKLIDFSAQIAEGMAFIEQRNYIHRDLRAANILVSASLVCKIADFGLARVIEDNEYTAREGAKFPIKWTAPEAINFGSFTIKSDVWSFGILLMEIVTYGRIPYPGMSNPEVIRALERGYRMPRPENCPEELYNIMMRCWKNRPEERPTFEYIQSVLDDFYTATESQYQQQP

Sequence of Serine/threonine-protein kinase Nek4 (Homo sapiens) (P51957 whole entry, looked up): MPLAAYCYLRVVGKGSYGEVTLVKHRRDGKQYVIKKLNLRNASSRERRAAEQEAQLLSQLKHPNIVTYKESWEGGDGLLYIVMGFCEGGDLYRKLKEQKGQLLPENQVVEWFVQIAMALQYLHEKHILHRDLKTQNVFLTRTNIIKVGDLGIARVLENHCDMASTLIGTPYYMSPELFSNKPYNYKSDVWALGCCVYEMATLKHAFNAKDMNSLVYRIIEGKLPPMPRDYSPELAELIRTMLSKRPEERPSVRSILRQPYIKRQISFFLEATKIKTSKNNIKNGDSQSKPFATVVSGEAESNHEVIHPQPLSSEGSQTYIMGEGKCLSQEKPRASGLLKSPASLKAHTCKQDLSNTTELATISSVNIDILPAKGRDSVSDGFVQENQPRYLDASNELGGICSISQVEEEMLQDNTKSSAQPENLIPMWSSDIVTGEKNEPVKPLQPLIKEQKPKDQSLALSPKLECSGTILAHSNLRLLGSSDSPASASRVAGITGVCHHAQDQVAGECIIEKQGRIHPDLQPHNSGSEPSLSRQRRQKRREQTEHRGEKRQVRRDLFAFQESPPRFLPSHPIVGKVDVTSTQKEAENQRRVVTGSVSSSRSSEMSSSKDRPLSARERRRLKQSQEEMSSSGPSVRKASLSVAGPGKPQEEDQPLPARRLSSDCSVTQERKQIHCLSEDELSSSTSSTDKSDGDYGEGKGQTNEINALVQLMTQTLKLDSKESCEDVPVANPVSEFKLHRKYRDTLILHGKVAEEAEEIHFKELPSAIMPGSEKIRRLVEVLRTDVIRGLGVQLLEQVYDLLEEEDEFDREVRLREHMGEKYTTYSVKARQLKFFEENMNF
Sequence of SRSF protein kinase 1 (Homo sapiens) (Q96SB4 whole entry): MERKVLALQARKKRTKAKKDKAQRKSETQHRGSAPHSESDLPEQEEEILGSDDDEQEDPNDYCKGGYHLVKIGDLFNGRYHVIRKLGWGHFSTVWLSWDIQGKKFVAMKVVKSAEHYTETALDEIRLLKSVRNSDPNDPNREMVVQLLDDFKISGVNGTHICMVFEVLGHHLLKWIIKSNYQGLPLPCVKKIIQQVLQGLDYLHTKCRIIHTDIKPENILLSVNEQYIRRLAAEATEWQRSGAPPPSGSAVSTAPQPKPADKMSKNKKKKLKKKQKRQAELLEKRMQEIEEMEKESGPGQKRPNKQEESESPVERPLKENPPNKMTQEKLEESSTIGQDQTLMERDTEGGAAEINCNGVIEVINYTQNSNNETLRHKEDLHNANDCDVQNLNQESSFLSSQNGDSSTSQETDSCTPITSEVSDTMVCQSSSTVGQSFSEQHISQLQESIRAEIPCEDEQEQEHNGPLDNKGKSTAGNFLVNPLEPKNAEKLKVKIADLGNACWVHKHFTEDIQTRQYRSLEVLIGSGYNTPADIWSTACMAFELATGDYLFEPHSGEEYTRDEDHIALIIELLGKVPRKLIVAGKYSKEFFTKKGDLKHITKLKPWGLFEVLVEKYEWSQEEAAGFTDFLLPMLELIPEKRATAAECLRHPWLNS
Sequence of Tyrosine-protein kinase Srms (Homo sapiens) (Q9H3Y6 whole entry): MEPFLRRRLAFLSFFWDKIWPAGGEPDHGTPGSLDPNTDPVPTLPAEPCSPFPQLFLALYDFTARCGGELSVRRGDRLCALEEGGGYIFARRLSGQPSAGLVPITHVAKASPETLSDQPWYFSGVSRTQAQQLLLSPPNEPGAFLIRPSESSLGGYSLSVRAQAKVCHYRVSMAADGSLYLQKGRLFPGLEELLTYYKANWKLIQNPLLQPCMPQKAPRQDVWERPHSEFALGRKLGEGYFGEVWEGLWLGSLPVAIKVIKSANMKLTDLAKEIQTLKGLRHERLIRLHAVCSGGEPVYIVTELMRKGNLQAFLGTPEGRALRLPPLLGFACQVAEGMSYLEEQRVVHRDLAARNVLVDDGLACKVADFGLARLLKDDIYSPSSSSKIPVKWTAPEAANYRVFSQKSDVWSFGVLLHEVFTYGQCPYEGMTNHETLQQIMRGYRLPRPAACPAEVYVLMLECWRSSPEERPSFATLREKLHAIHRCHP
Sequence of Serine/threonine-protein kinase OSR1 (Homo sapiens) (O95747 whole entry, looked up): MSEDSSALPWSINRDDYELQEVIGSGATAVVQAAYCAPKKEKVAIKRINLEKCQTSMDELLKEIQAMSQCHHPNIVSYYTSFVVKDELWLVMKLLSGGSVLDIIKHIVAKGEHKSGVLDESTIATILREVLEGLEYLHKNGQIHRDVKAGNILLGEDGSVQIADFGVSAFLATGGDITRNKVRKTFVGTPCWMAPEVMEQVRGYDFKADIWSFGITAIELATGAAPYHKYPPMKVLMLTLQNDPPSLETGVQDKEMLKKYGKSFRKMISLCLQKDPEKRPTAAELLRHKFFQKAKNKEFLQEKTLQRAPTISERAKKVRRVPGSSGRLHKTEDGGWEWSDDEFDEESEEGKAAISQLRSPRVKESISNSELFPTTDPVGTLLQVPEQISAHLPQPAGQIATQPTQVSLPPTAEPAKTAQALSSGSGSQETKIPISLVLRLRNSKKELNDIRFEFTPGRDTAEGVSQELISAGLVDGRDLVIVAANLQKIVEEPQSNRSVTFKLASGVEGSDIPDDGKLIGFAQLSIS

In the case of `C[C@]1(O)C[C@@H](c2nc(-c3ccc4ccc(-c5ccccc5)nc4c3)c3c(N)nccn32)C1`, the inhibition [1] is reported as -2.4%, the inhibition [2] is reported as -3.26% and the inhibition [3] is reported as -0.53%. For the same molecule, the inhibition [4] was -6.12% and the inhibition [5] was -6.49%.
With `Nc1n[nH]c2nnc(-c3c(-c4ccccc4)nn4ccccc34)cc12` the inhibition [6] was -9.24%.
Work on `C[C@@]1(C(=O)Nc2ccc(F)nc2)CCCN1c1nc(Nc2cc(C3CC3)n[nH]2)c2cccn2n1` yielded an inhibition [7] of -1.93% and an inhibition [8] of 9.36%.
